# Experimental data published in publication PMC6680510, “Benzotriazine Di-Oxide Prodrugs for Exploiting Hypoxia and Low Extracellular pH in Tumors” (Molecules, 2019).
# Read-outs that look alike come from different tables or passages of the source.
# Experiments:
# [1] = One-electron reduction potentials by pulse radiolysis; format: physicochemical; conditions: pH 7.0, equilibrium with redox indicator shown in square brackets
# Method: One-electron reduction potentials (E^0′) were determined from the redox equilibria with methylviologen, MV^2+, (E^0′ = […], [34]), dimethyldiquat, V21^2+, (E^0′ = […], [35]), or triquat, TQ^2+, (E^0′ = −548 ± 7 mV [34]). […] Substituting the 3-alkanoic sidechain with the 3-aminoalkanoic sidechain on the BTO 1,4-dioxide lowers the E^0′, as does the addition of the cyclopentane ring. The combined effect is seen for 10a, where the E^0′ value is −565 mV, which is expected to be too low for significant bioreduction under hypoxia.
# Time-resolved optical absorption and kinetic studies were carried out using the University of Auckland’s 4 MeV linear accelerator, which has been previously described. The one-electron reduction potentials of the compounds (A) and couple E^0′(A/A^−), versus normal hydrogen electrode, were determined at pH 7.0 (2.5 mM phosphate) by establishing redox equilibria within 50 μs between three mixtures of one-electron reduced A and the viologen reference compounds, MV^2+, TQ^2+ and V21^2+. The determined equilibrium constants were used to calculate the ΔE values using the Nernst equation, correcting for ionic strength effects, as described in the literature.
# SiHa cells [2] = system: SiHa cells
# Method: In these experiments, cell pellets were collected by centrifugation and ^3H-mannitol was used as a cell-excluded marker to enable correction for the entrapped extracellular medium.
# Log-phase cultures were dissociated with trypsin/EDTA, followed by the addition of the medium with DNAase I (Sigma DN-25) at 100 μg/mL for 5 min at 37 °C to minimize clumping. The cell pellets were collected by centrifugation and resuspended in αMEM with 5% FBS at pH 7.4 or 6.5 to 2 × 10^6 cells/mL. Samples (12 mL) were equilibrated with magnetic stirring at 37 °C under flowing humidified 5% CO2/air or N2 (50–100 mL/min), as previously described [86]. After equilibration for 60 min, the compounds were added in 50 μL of DMSO. The samples (5 mL) were withdrawn 5 and 60 min later, where the cell pellets were then collected by centrifugation and 4 mL of the supernatant was discarded. The pellets were resuspended in the remaining 1 mL, transferred to microcentrifuge tubes containing 7 μL ^3H-mannitol (740 GBq/mmol, American Radiolabeled Chemicals Inc., St. Louis, MO) as an extracellular marker, and then centrifuged (11,000g × 30s). The supernatant was removed and frozen at −80 °C (extracellular samples) and the tubes were centrifuged again, and any remaining medium was carefully removed. Ice-cold MeOH (80 μL) was added to the pellets which were disrupted by pipetting and stored at −80 °C (intracellular samples). When these were thawed for HPLC analysis (Section 4.12), the volume of extracellular water trapped in the pellets was determined by the scintillation counting (PerkinElmer Tri-Carb B2910TR Liquid Scintillation) of 25 μL of each extracellular and intracellular sample in 3 mL of Emulsifier-Safe™ scintillation cocktail (PerkinElmer). The extracellular volume in each intracellular sample was used to correct the intracellular drug concentration as previously described [87].
# The samples were analyzed using an Agilent 1200 HPLC with a diode array absorbance detector and autosampler maintained at 4 °C (Agilent Technologies). The frozen samples were thawed, then centrifuged (11,000g × 5 min), and then extracellular samples were injected directly (typically 20 μL), while for the intracellular samples 30 μL was mixed 1:1 with αMEM and 50 μL was injected. […] All calibration curves were linear (R^2 > 0.999). The column was an Agilent ZORBAX Eclipse (XDB-C18, 5u, 2.1 × 150 mm, Agilent Technologies) with a flow rate of 0.4 mL/min. For SN30000 (2), the mobile phase was a mixture of 80% MeCN/water v/v (A), and a 45 mM formate buffer at a pH 4.5, eluting with a linear gradient of 5–100% A over 18 min. The same method was used for the BTO acids, except for 4a, where the aqueous mobile phase pH was reduced to 3.5.
# Values are mean and SEM for 3 replicates. ND: Not detected.
# FaDu cells = experiment: IC50 assay (inhibition of proliferation, 4 h exposure, SRB); format: cell-based
# SiHa cells [3] = experiment: as above; conditions: SiHa
# Method: Cells were seeded in 96-well plates (SiHa or FaDu 1500 cells/well, UT-SCC-74B 800 cells/well) in 100 μL. After incubation for 2 h, the drugs were added in 50 μL of the same titrated medium at 3× the final concentration to duplicate the wells. After a further 4 h the plates were checked for drug precipitation using a phase contrast microscope, then drugs were removed by aspirating and washing with the standard (pH 7.4) medium, then aspirating again and adding 150 μL of the medium. Cultures were then grown for 5 days before staining with sulphorhodamine B and measuring absorbance, with the estimation of IC50 values using 4-parameter logistic regression, as previously carried out.
# The medium and plasticware was equilibrated in the chamber for 3 days prior to use. In the anoxia experiments, FaDu cells were plated in poly-L-lysine coated plates (Corning Cat # 356461) to improve attachment.
# Cells were subsequently grown under standard cell culture conditions (oxia, pHe 7.4) for 5 days before staining with sulforhodamine B (SRB). […] (B) SN30000 (2). (C) BTO acid 4a. Values are means and errors are ranges for duplicate cultures in a single experiment. Fitted curves are 4-parameter logistic regressions. PCR = pH cytotoxicity ratio. ACR = anoxia cytotoxicity ratio. TMR = tumor microenvironment ratio.
# SiHa cells [4] = experiment: Metabolism and uptake of ester 4b in anoxic single cell suspensions; format: in vitro ADME; conditions: anoxic SiHa suspensions after addition of 4b (150 μM)
# From the text: If the anionic sidechain of the BTO acids results in low intracellular concentrations, with reductive metabolism occurring largely at the cell surface, the corresponding esters would be expected to provide improved delivery to the intracellular compartment (consistent with their higher cytotoxic potencies, as noted in Section 2.5). To test this, we compared the metabolism of ester 4b (Figure 7A) with its corresponding acid 4a (Figure 7B) by monitoring extracellular concentrations in anoxic SiHa suspensions. The rates of metabolism of both compounds were unaffected by pHe, consistent with the results for 4a in Figure 5B. The ester was metabolized more rapidly than the acid, with only a trace of acid 4a detected transiently as an extracellular metabolite (Figure 7A). The major metabolites were the less polar 1-oxide, 15a, and the 1-oxide of the ester, 16a. In separate experiments with higher initial concentrations of 4b, 15a was again the main extracellular metabolite (Figure 7C, left). […] Compound 4b itself was not detected in the intracellular samples, presumably reflecting a lack of retention in cells and the very low intracellular volume, which will compromise analytical sensitivity (only 2 × 10^6 cells were collected for each analysis in this experiment).
# Figure 7 Metabolism of BTO ester 4b and the corresponding acid 4a by anoxic SiHa single cell suspensions (2 × 10^6 cells/mL). (A) Extracellular concentrations following the addition of 4b (50 μM). (B) Extracellular concentrations following the addition of 4a (50 μM). (C) Extracellular (left) and intracellular (right) concentrations following the addition of 4b (150 μM). Values are means and errors are SEM for 3 replicate cultures.
# [5] = Solubility in AlphaMEM + 5% FBS, pH 7.4; conditions: culture medium (AlphaMEM + 5% FBS), pH 7.4, plasma or biological fluid, thermodynamic from solid
# [6] = system: reduction of BTOs to their N-1-oxides by SiHa cells; experiment: WST-1 inhibition of anoxic reduction of BTOs to N-1-oxides; format: cell-based
# From the text: One possibility for this is that the BTO acids are reduced to the 1-oxides by an extracellular one-electron reductase. To test this, we evaluated whether the cell-excluded disulfonic acid tetrazolium salt WST-1 could compete with BTO acids for one-electron reduction. WST-1 is a known electron acceptor for one-electron reduction by the plasma membrane electron transport system (PMET) and is widely used as a cell viability assay, although the latter application uses 1-methoxyphenazine methylsulphate (mPMS) as an electron transfer intermediate. Given the possibility that mPMS could cross the plasma membrane itself, we used WST-1 without mPMS to ensure that the electron donor is a cell surface reductase.
# The log-phase cells were trypsinized and the pellets were transferred to the anaerobic chamber and resuspended in equilibrated αMEM + 5% FBS at pH 7.4 and plated (10^5 cells in 100 μL/well for experiments with WST1, otherwise 2 × 10^5 cells/well). After incubation at 37 °C for 2 h, 20 μL was replaced with the anoxic medium containing 5× the final concentrations of test compounds with or without WST-1 (1 mM, Toronto Research Chemicals). A cell-free medium used as a control to check for reduction in the anoxic medium. Cultures were mixed gently, incubated for a further 2 h, then the extracellular medium was removed and 200 μL of ice-cold MeOH was added to the monolayers. The MeOH extract was transferred to the medium sample (thus combining the intracellular and extracellular samples). The pooled samples (combining the intracellular and extracellular samples) were removed from anoxic chamber, then centrifuged (13000g, 30 s) and frozen for subsequent HPLC analysis. Cell-free wells were used for single-point calibration of the parent compounds and 1-oxides in each experiment.
# Figure 8 Inhibition of reduction of BTOs to their N-1-oxides by the cell-excluded electron acceptor WST-1. SiHa cells were seeded in 96-well plates at 10^6 cells/mL and exposed to the compounds (50 μM) with the indicated concentrations of WST-1 under anoxia for 2 h. Total (pooled intracellular and extracellular) amounts of the 1-oxide metabolites were determined by HPLC. Values are mean and SEM for two experiments with triplicate cultures at each concentration.
# [7] = reference viologen; cited from earlier work
compound,measurement,setting,value
"3-((2-Carboxyethyl)amino)-7,8-dihydro-6H-indeno[5,6-e][1,2,4]triazine 1,4-Dioxide [Compound 11a]",E^0′ one-electron reduction potential,[1],−481 ± 10 [MV^2+] mV
same,Ci ratio (Ci at pHe 6.5/Ci at pHe 7.4),SiHa cells [2],4.4 ± 1.2 fold
same,"Ci/Ce, pHe 6.5 Obs 5 min",SiHa cells [2],0.17 ± 0.02
same,"Ci/Ce, pHe 6.5 Obs 60 min",SiHa cells [2],0.29 ± 0.02
same,"Ci/Ce, pHe 7.4 Obs 5 min",SiHa cells [2],<0.1
same,"Ci/Ce, pHe 7.4 Obs 60 min",SiHa cells [2],<0.1
same,TMR (oxic IC50 pHe 7.4/anoxic IC50 pHe 6.5),FaDu cells,>1
same,PCR Anoxic (IC50 at pHe 7.4/IC50 at pHe 6.5),FaDu cells; anoxic,>1
same,ACR (oxic IC50/anoxic IC50),FaDu cells; pHe 6.5,> 1
same,IC50,"FaDu cells; pHe 6.5, 4 h, anoxic, read-out: Anoxic IC50",3810 ± 390 µM
same,IC50,"FaDu cells; pHe 6.5, 4 h, oxic, read-out: Oxic IC50",> 4000 µM
same,IC50,"FaDu cells; pHe 7.4, 4 h, anoxic, read-out: Anoxic IC50",> 4000 µM
same,IC50,"FaDu cells; pHe 7.4, 4 h, oxic, read-out: Oxic IC50",> 4000 µM
same,TMR (overall TME ratio = oxic IC50 pHe 7.4/anoxic IC50 pHe 6.5),SiHa cells [3],15.9 ± 1.6
same,PCR Anoxic (IC50 at pHe 7.4/IC50 at pHe 6.5),SiHa cells [3]; anoxic,4.94 ± 1.14
same,PCR oxic (IC50 at pHe 7.4/IC50 at pHe 6.5),SiHa cells [3]; oxic,4.18 ± 0.21
same,IC50,"SiHa cells [3]; read-out: Anoxic IC50, pHe 6.5, 4 h, anoxic",145 ± 13 µM
same,IC50,"SiHa cells [3]; read-out: Anoxic IC50, pHe 7.4, 4 h, anoxic",714 ± 152 µM
same,IC50,"SiHa cells [3]; read-out: Oxic IC50, pHe 6.5, 4 h, oxic",551 ± 16 µM
same,IC50,"SiHa cells [3]; read-out: Oxic IC50, pHe 7.4, 4 h, oxic",2300 ± 92 µM
"COC(=O)CCc1n[n+]([O-])c2ccccc2[n+]1[O-] [Compound 4b, 3-(3-Methoxy-3-oxopropyl)benzo[e][1,2,4]triazine 1,4-Dioxide]",E^0′ one-electron reduction potential,[1],−363 ± 7 [MV^2+] mV
same,Detection in intracellular samples,SiHa cells [4],not detected
same,TMR (oxic IC50 pHe 7.4/anoxic IC50 pHe 6.5),FaDu cells,42.3 ± 2.6
same,IC50,"FaDu cells; Homo sapiens, 4 h, pHe 6.5, 4 h, anoxic, read-out: Anoxic IC50",3.3 ± 0.11 µM
same,IC50,"FaDu cells; Homo sapiens, 4 h, pHe 6.5, 4 h, oxic, read-out: Oxic IC50",98 ± 12 µM
same,IC50,"FaDu cells; Homo sapiens, 4 h, pHe 7.4, 4 h, anoxic, read-out: Anoxic IC50",3.2 ± 0.38 µM
same,IC50,"FaDu cells; Homo sapiens, 4 h, pHe 7.4, 4 h, oxic, read-out: Oxic IC50",140 ± 7 µM
same,PCR Anoxic (IC50 at pHe 7.4/IC50 at pHe 6.5),FaDu cells; anoxic,0.97 ± 0.12
same,PCR oxic (IC50 at pHe 7.4/IC50 at pHe 6.5),FaDu cells; oxic,1.43 ± 0.19
same,ACR (oxic IC50/anoxic IC50),FaDu cells; pHe 6.5,29.6 ± 3.8
same,ACR (oxic IC50/anoxic IC50),FaDu cells; pHe 7.4,43.6 ± 5.7
same,melting point,,89 to 91 °C
same,IC50,"SiHa cells [3]; Homo sapiens, 4 h, read-out: Anoxic IC50, SiHa, pHe 6.5, 4 h, anoxic",1.8 ± 0.46 µM
same,IC50,"SiHa cells [3]; Homo sapiens, 4 h, read-out: Anoxic IC50, SiHa, pHe 7.4, 4 h, anoxic",1.4 ± 0.1 µM
same,IC50,"SiHa cells [3]; Homo sapiens, 4 h, read-out: Oxic IC50, SiHa, pHe 6.5, 4 h, oxic",26.3 ± 7.1 µM
same,IC50,"SiHa cells [3]; Homo sapiens, 4 h, read-out: Oxic IC50, SiHa, pHe 7.4, 4 h, oxic",34.4 ± 3.5 µM
same,TMR (overall TME ratio = oxic IC50 pHe 7.4/anoxic IC50 pHe 6.5),SiHa cells [3],19.1 ± 5.3
same,PCR Anoxic (IC50 at pHe 7.4/IC50 at pHe 6.5),SiHa cells [3]; anoxic,0.78 ± 0.21
same,PCR oxic (IC50 at pHe 7.4/IC50 at pHe 6.5),SiHa cells [3]; oxic,1.31 ± 0.38
same,ACR (anoxic cytotoxicity ratio = oxic IC50/anoxic IC50),SiHa cells [3]; pHe 6.5,14.5 ± 5.4
same,ACR (anoxic cytotoxicity ratio = oxic IC50/anoxic IC50),SiHa cells [3]; pHe 7.4,24.6 ± 3.1
same,solubility,[5],17.7 mM
"O=C(O)CCc1nc2ccccc2[n+]([O-])n1 [Compound 15a, 3-(2-Carboxyethyl)benzo[e][1,2,4]triazine 1-Oxide]","Intracellular concentration, fold lower than that of acid 4a",SiHa cells [4],approximately 10 fold
same,melting point,,152 to 154 °C (dec.)
O=[N+]([O-])c1ccc(-[n+]2nc(-c3ccc(S(=O)(=O)O)cc3S(=O)(=O)[O-])nn2-c2ccc(I)cc2)cc1 [WST-1],IC50,"[6]; read-out: IC50 for inhibition of anoxic reduction of 4a to N-1-oxide 15a, substrate 4a 50 μM, anoxia 2 h",7.05 µM
same,IC50,"[6]; read-out: IC50 for inhibition of anoxic reduction of 7a to N-1-oxide 15d, substrate 7a 50 μM, anoxia 2 h",14.3 µM
same,IC50,"[6]; substrate SN30000 50 μM, anoxia 2 h, read-out: IC50 for inhibition of metabolic reduction of SN30000",> 1000 µM
same,IC50,"[6]; substrate TPZ 50 μM, anoxia 2 h, read-out: IC50 for inhibition of metabolic reduction of TPZ",> 1000 µM
"c1cc[n+]2c(c1)-c1cccc[n+]1CCC2 [triquat, 7,8-dihydrodipyrido-[1,2-a:2′,1′-c][1,4]diazepinedium]",E^0′ of redox indicator,[7],−548 ± 7 mV
